Article PMC10731632, “Is Smaller Better? Cu^2+/Cu^+ Coordination Chemistry and Copper-64 Radiochemical Investigation of a 1,4,7-Triazacyclononane-Based Sulfur-Rich Chelator” (Inorganic Chemistry, 2023)
One block for each molecule: values may come before it.

What was measured:
[1] = Acidity constants (pKa) of the free ligands by pH-dependent 1H NMR; type: physicochemical; settings: water, T = 25 °C
Description: (§1) Subsequently, the acid–base properties of NO3S and TACN-n-Bu were appraised. This study is a prior fundamental step before the investigation of complexation equilibria, since the proton represents a competitor of the metal ion for the interaction with the donor sites having Brønsted and Lewis acid–base properties, such as the amines of the TACN scaffold. […] The ionic strength (I) was adjusted using 0.15 M NaNO3. […] Therefore, additional pKa measurements were performed in a 1:1 water/methanol mixture, where no precipitation was detected. The acidity constants of TACN-n-Bu were derived upon analysis of the pH-potentiometric titrations data and pH-dependent ^1H NMR spectra in water (Figure S9B). The acidity constant values of both ligands are gathered in Table 1 along with the values of the unsubstituted macrocycle (i.e., TACN) and the methyl-functionalized one (i.e., 1,4,7-trimethyl-1,4,7-triazacyclonane, TACN-Me) derived from the literature.[30]
However, the chemical shift of all of the other signals manifests a noticeable pH dependence. The most pronounced variation is experienced by the NCH2 protons of the ring, possibly because the deprotonation processes led to a marked relaxation of the ring constraint caused by the H^+−H^+ repulsions. An analogous pH dependency of the chemical shifts is observed for TACN-n-Bu, even if in this case a slowed exchange between the differently protonated forms can be recognized from the enlargement of the signals around pH = pKa,2. The data were fitted, and the corresponding protonation constants (Table 1) were obtained.
Small additions (∼μL) of HNO3 and/or NaOH were used to adjust the pH. The latter was measured as for the potentiometric measurements. Under highly acidic conditions, the pH was computed from the HNO3 concentration (pH = −logCH^+). An excitation sculpting pulse scheme was used to suppress the water signal.[32]
(§2) The thermodynamic data were elaborated with the least-squares fitting program PITMAP as described in our previous works.[22]−[25] […]

[2] = Acidity constants (pKa) of the free ligands by pH-potentiometric titration; type: physicochemical; settings: T = 25 °C, I = 0.15 M NaNO3
Description: as §1
Potentiometric titrations were conducted using an automated titrating system (Metrohm 765 Dosimat) equipped with a combined glass electrode (Hamilton pH 0–14) and a Metrohm 713 pH meter at T = 25 °C under a N2 atmosphere. NaNO3 (0.15 M) was used to fix the ionic strength. Stock solutions of NO3S and TACN-n-Bu were freshly prepared by dissolution of the synthesized compounds (∼10^–3 M). To avoid carbonatation phenomena and facilitate the dissolution, prestandardized HNO3 (CH^+ = 4CL) was coadded to each ligand solution. The solubility of the ligands in water depends on pH: minimal values occur at pH > 12, where the noncharged, totally deprotonated form predominates. All of the titrations were conducted as previously described.[22]−[25] […] Each titration was performed independently, at least in quintuplicate.
as §2

[3] = Formation kinetics of Cu2+ complexes by UV-vis spectroscopy (time to reach equilibrium); type: physicochemical; settings: ambient temperature
Description: The formation kinetics of the Cu^2+ complexes with NO3S and TACN-n-Bu was qualitatively appraised by UV–vis spectroscopy at ambient temperature and different pH values to explore the time necessary to reach equilibrium. The spectrum of NO3S and TACN-n-Bu as free ligands is also reported for comparison purposes in Figure S15.
The formation kinetics of Cu^2+ complexes with NO3S and TACN-n-Bu was evaluated at different pH values at room temperature using UV–vis spectroscopy as previously reported.[24],[25] Briefly, equimolar amounts of Cu^2+ and the proper ligands were mixed, and the corresponding UV–vis spectra were recorded over time. The final concentrations were CCu^2+ = CL = 1.0 × 10^–4 M. The pH was controlled using the following buffers: HCl 10^–2 M (pH = 2), acetic acid/acetate (pH = 4), and 2-[4-(2-hydroxyethyl)piperazin-1-yl]ethanesulfonic acid (HEPES) (pH = 7.1).

[4] = Stability constants of Cu2+ complexes by UV-vis spectrophotometric batch titrations; pCu2+ calculation; type: physicochemical; settings: for pCu^2+ (−log[Cu^2+]free): calculated at CL = 1 × 10^-5 M, CCu2+ = 1 × 10^-6 M, pH 7.4 from stability constants
Description: The stability constants (logβ) of the Cu^2+ complexes formed by NO3S and TACN-n-Bu were determined via UV–vis spectrophotometric titrations. Due to both the slow complexation kinetics observed at acidic pH (vide supra) and the high complex stability, batch titrations were conducted and heating was applied to speed up reaching the equilibrium condition.
The stability of the Cu^2+ complexes with TACN-n-Bu was assessed as well to investigate the role of the sulfanyl pendants in metal coordination. The UV–vis spectra recorded at different pH values are shown in Figure 3B, and the variation of the absorbance at λ = 295 nm is reported in Figure S16B. The pCu^2+ values were then computed (Figure 5): being defined as −log[Cu^2+]free, the higher the pCu^2+ value, the greater the stability of the considered metal–ligand complex.[23]−[25]
UV–vis pH-spectrophotometric titrations were carried out as previously reported by means of the out-of-cell method at T = 25 °C and I = 0.15 M NaNO3.[24],[25] Briefly, stock solutions of NO3S or TACN-n-Bu were mixed with Cu(NO3)2 in independent vials at a 1:1 metal-to-ligand ratio (CCu^2+ = CL = 1.0 × 10^–4 M). The pH was adjusted as described in the NMR experiments. The vials were sealed and heated to T = 60 °C in a thermostatic bath to ensure complete complexation and then cooled to ambient temperature. The absorption spectra were recorded, and equilibrium was considered to be reached when no variations in either the pH or the electronic spectra were detected over time.
The thermodynamic data were elaborated with the least-squares fitting program PITMAP as described in our previous works.[22]−[25] All equilibrium constants refer to the overall equilibrium pM^m+ + qH^+ + rL^l– ⇌ MpHqLr^pm+q–rl, where M = Cu^2+ and L = NO3S or TACN-n-Bu, respectively, and are defined as cumulative formation constants (logβpqr = [MpLqHr]/[M]^p[L]^q[H]^r).

[5] = Cyclic voltammetry of the copper complex of NO3S (Cu2+/Cu+ couple); Cu+ stability constant and pCu+; type: physicochemical
Description: To assess the ability of NO3S to stably bind Cu^+, cyclic voltammetry (CV) analysis was executed. The investigation was performed in aqueous solution at pH ranging from 3 to 12. The obtained cyclic voltammograms, reported in Figure 7, show a peak couple attributable to the quasi-reversible one-electron reduction–oxidation process of the Cu^2+/Cu^+ redox pair (Table S9). No variation of the voltammetric behavior after multiple reduction–oxidation cycles was observed either with time or with the scan rate (except for the increase in the current intensity, i). This outcome is extremely significant because it proves the ability of NO3S to stabilize both copper oxidation states throughout the investigated pH range on the time scale of the CV experiments.
As illustrated in Figure 7 and Table S9, a pH-dependent variation of the cyclic voltammograms was found. […]
Bulk electrolysis of the preformed Cu^2+-NO3S complexes was carried out in a two-compartment cell. […] The electrolysis was performed at a fixed potential equal to E = −0.35 V and monitored by linear scan voltammetry on a rotating disk electrode. […] No variations of the ^1H NMR spectra were detected after 2 days (tubes were stored under a normal atmosphere). […]

[6] = Solubility in water observed during pKa measurements; type: physicochemical; settings: basic pH, precipitate observed
Description: as §1
Potentiometric titrations were conducted using an automated titrating system (Metrohm 765 Dosimat) equipped with a combined glass electrode (Hamilton pH 0–14) and a Metrohm 713 pH meter at T = 25 °C under a N2 atmosphere. NaNO3 (0.15 M) was used to fix the ionic strength. Stock solutions of NO3S and TACN-n-Bu were freshly prepared by dissolution of the synthesized compounds (∼10^–3 M). […]

[7] = parameters: method as in Bianchi et al. [30]; settings: I = 0.1 M KNO3, T = 25 °C; ref Bianchi et al. [30]; cited from earlier work
[8] = parameters: method as in PMID 35807404; settings: after 24 h; cited from earlier work
[9] = I = 0.15 M NaNO3, read-out: pKa, H2L^2+ ⇌ H^+ + HL^+
[10] = UV-vis spectrophotometric titrations, T = 25 °C, I = 0.15 M NaNO3

pCu^2+ (−log[Cu^2+]free) [4]: 18.2
SMILES: O=C(O)CN1CCN(CC(=O)O)CCN(CC(=O)O)CC1 [NOTA, 1,4,7-triazacyclononane-1,4,7-triacetic acid, reference compound]

pKa [1, 9]: 5.04 ± 0.05
pKa ([2]; water, pH potentiometry, read-out: pKa, H2L^2+ ⇌ H^+ + HL^+): 5 ± 0.05
logβ, Cu^2+ + HL^+ ⇌ [CuHL]^3+ [4, 10]: 6.2 ± 0.1
logβ, Cu^2+ + HL^+ ⇌ [CuL]^2+ + H^+ [4, 10]: –0.04 ± 0.15
SMILES: CCCCN1CCN(CCCC)CCN(CCCC)CC1 [TACN-n-Bu, 1,4,7-tris-n-butyl-1,4,7-triazacyclononane]
Time to reach Cu2+ complexation equilibrium ([3]; neutral pH, equimolar metal-to-ligand 10^-4 M): 8 h

The next lines start with the molecule.

SMILES: CSCCN1CCN(CCSC)CCN(CCSC)CC1 [NO3S]
pKa [1, 9]: 2.7 ± 0.02
pKa ([1]; I = 0.15 M NaNO3, read-out: pKa, HL^+ ⇌ H^+ + L): 12.72 ± 0.08
pKa ([2]; 1:1 water/methanol, pH potentiometry in 1:1 water/methanol, read-out: pKa, H2L^2+ ⇌ H^+ + HL^+): 2.33 ± 0.04
pKa ([2]; 1:1 water/methanol, pH potentiometry in 1:1 water/methanol, read-out: pKa, HL^+ ⇌ H^+ + L): 11.52 ± 0.01
Time to reach Cu2+ complexation equilibrium ([3]; pH = 1.0, equimolar metal-to-ligand 10^-4 M): ~14 h
Time to reach Cu2+ complexation equilibrium ([3]; pH = 4.0, equimolar metal-to-ligand 10^-4 M): ~0.167 h
Time to reach Cu2+ complexation equilibrium ([3]; pH = 7.1 (neutral), equimolar metal-to-ligand 10^-4 M): < 0.017 h
logβ, Cu^2+ + L + H2O ⇌ [CuL(OH)]^+ + H^+ [4, 10]: 9.08 ± 0.03
logβ, Cu^2+ + L ⇌ [CuL]^2+ [4, 10]: 18.41 ± 0.05
pCu^2+ (−log[Cu^2+]free) [4]: 14.3
Increase in Cu2+ complex stability (pCu^2+) with respect to TACN-n-Bu ([4]; physiological pH): 6 orders of magnitude
pCu^+ ([5]; calculated at CL = 10^-5 M, CCu+ = 10^-6 M, pH = 7.4): 14.0
logβ, Cu^+ + L ⇌ [CuL]^+ ([5]; obtained from voltametric data, T = 25 °C, I = 0.15 M NaNO3): 18.36 ± 0.05
Solubility in water of the completely deprotonated neutral form (L) [6]: sparingly soluble

SMILES: CN1CCN(C)CCN(C)CC1 [TACN-Me, 1,4,7-trimethyl-1,4,7-triazacyclonane]
pKa, H2L^2+ ⇌ H^+ + HL^+ [7]: 5.1
pKa, H3L^3+ ⇌ H^+ + H2L^2+ [7]: –0.4
pKa, HL^+ ⇌ H^+ + L [7]: 11.7

SMILES: CSCCN1CCN(CCSC)CCN(CCSC)CCN(CCSC)CC1 [DO4S, 1,4,7,10-tetrakis-[2-(methylsulfanyl)ethyl]-1,4,7,10-tetraazacyclododecane]
Percentage of intact [64Cu]Cu2+ complex in human serum [8]: 20%

SMILES: C1CNCCNCCN1 [TACN, 1,4,7-triazacyclononane]
pKa, H2L^2+ ⇌ H^+ + HL^+ [7]: 6.86
pKa, H3L^3+ ⇌ H^+ + H2L^2+ [7]: 2.1
pKa, HL^+ ⇌ H^+ + L [7]: 10.68
